One assay concerns 621-102 (TSC2-deficient). Briefly: relative viability vs DMSO; higher = less cytotoxic. Particulars: serum: 10% FBS, 72 h.
The next assay deals with 621-103 (TSC2-rescued). The description is as above. As to conditions: serum: 10% FBS, 72 h.

Each structure is given as a SMILES string. Where a name gives a salt, the structure may show the parent alone. ± gives the standard error.
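Further: immortalized renal angiomyolipoma cells stably carrying empty vector or TSC2, dosed in 384-well plates in DMEM, viability normalized to vehicle-treated wells within each plate.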

For the compound `O=c1c(O)c(-c2ccc(O)c(O)c2)oc2cc(O)cc(O)c12` [Quercetin (Sophoretin)], the relative viability came out at 64.8 ± 5.1% with 621-102 (TSC2-deficient) (0.0001 µM); 65.4 ± 7.3% in the assay on 621-102 (TSC2-deficient) (0.001 µM); 68.4 ± 9.3% in the assay with 621-102 (TSC2-deficient) (0.01 µM); 75 ± 10% in the assay with 621-102 (TSC2-deficient) (0.1 µM); 78.2 ± 10% in the assay with 621-102 (TSC2-deficient) (1 µM); 73.3 ± 5% in the assay with 621-102 (TSC2-deficient) (10 µM). Also, the relative viability in the assay with 621-103 (TSC2-rescued) (0.0001 µM) amounted to 87 ± 2%; in the assay on 621-103 (TSC2-rescued) (0.001 µM), 79.1 ± 1.4%; in the assay with 621-103 (TSC2-rescued) (0.01 µM) it was 88.6 ± 3.3%; in the assay with 621-103 (TSC2-rescued) (0.1 µM), 95.2 ± 6.2%; in the assay on 621-103 (TSC2-rescued) (1 µM), 89.4 ± 4.9%; in the assay with 621-103 (TSC2-rescued) (10 µM), 86.8 ± 1.1%.
In the case of `CNCCCC12CCC(c3ccccc31)c1ccccc12` [Maprotiline HCl], the relative viability is 124.2 ± 0.15% with 621-102 (TSC2-deficient) (0.0001 µM); 114 ± 4.2% with 621-102 (TSC2-deficient) (0.001 µM); 109 ± 5.4% with 621-102 (TSC2-deficient) (0.01 µM); 107 ± 3.5% with 621-102 (TSC2-deficient) (0.1 µM); 107.1 ± 0.36% in the assay on 621-102 (TSC2-deficient) (1 µM); 82.2 ± 3.8% in the assay with 621-102 (TSC2-deficient) (10 µM). Moreover, the relative viability in the assay on 621-103 (TSC2-rescued) (0.0001 µM) amounted to 101 ± 1.2%; in the assay with 621-103 (TSC2-rescued) (0.001 µM), 102 ± 1.2%; in the assay with 621-103 (TSC2-rescued) (0.01 µM), 99.43 ± 0.5%; with 621-103 (TSC2-rescued) (0.1 µM) it was 95.4 ± 4.2%; in the assay on 621-103 (TSC2-rescued) (1 µM), 87.6 ± 2.2%; in the assay with 621-103 (TSC2-rescued) (10 µM), 64.61 ± 0.13%.
As for `CNC[C@H](O)c1ccc(O)c(O)c1` [Epinephrine bitartrate], the relative viability came out at 119 ± 1.4% in the assay on 621-102 (TSC2-deficient) (0.0001 µM); 118 ± 1.5% in the assay with 621-102 (TSC2-deficient) (0.001 µM); 105 ± 4% in the assay on 621-102 (TSC2-deficient) (0.01 µM); 101 ± 2.4% in the assay with 621-102 (TSC2-deficient) (0.1 µM); 103 ± 1.3% in the assay on 621-102 (TSC2-deficient) (1 µM); 100 ± 1.5% in the assay on 621-102 (TSC2-deficient) (10 µM). Further, the relative viability came to 102 ± 2.1% in the assay on 621-103 (TSC2-rescued) (0.0001 µM); 95.4 ± 4.3% in the assay on 621-103 (TSC2-rescued) (0.001 µM); 93.4 ± 4.4% in the assay on 621-103 (TSC2-rescued) (0.01 µM); 92.99 ± 0.3% with 621-103 (TSC2-rescued) (0.1 µM); 96 ± 1.2% in the assay with 621-103 (TSC2-rescued) (1 µM); 95.31 ± 0.25% in the assay on 621-103 (TSC2-rescued) (10 µM).
Consider `Cc1ccc(NC(=O)c2cccc(N(C)C)c2)cc1NC(=O)c1ccc(O)cc1`, for which the relative viability in the assay on 621-102 (TSC2-deficient) (0.0001 µM) came out at 90.2 ± 2%; in the assay with 621-102 (TSC2-deficient) (0.001 µM), 102 ± 2.6%; in the assay with 621-102 (TSC2-deficient) (0.01 µM), 100.2 ± 0.28%; with 621-102 (TSC2-deficient) (0.1 µM) it was 109 ± 5%; in the assay with 621-102 (TSC2-deficient) (1 µM), 109 ± 5.4%; in the assay on 621-102 (TSC2-deficient) (10 µM) it was 92.1 ± 6%. Also, the relative viability in the assay on 621-103 (TSC2-rescued) (0.0001 µM) is 104.9 ± 0.89%; in the assay with 621-103 (TSC2-rescued) (0.001 µM) it was 102 ± 4%; in the assay with 621-103 (TSC2-rescued) (0.01 µM) it was 101 ± 3.8%; with 621-103 (TSC2-rescued) (0.1 µM), 101 ± 4.5%; in the assay on 621-103 (TSC2-rescued) (1 µM) it was 94.6 ± 5%; with 621-103 (TSC2-rescued) (10 µM), 98.9 ± 1.4%.
For `CC(C)c1nc(CN(C)C(=O)N[C@H](C(=O)N[C@@H](Cc2ccccc2)C[C@H](O)[C@H](Cc2ccccc2)NC(=O)OCc2cncs2)C(C)C)cs1` [Ritonavir], the relative viability in the assay on 621-102 (TSC2-deficient) (0.0001 µM) stood at 106.1 ± 0.46%; with 621-102 (TSC2-deficient) (0.001 µM), 98.8 ± 4.8%; in the assay on 621-102 (TSC2-deficient) (0.01 µM) it was 105 ± 4.1%; in the assay with 621-102 (TSC2-deficient) (0.1 µM) it was 104 ± 1.4%; in the assay with 621-102 (TSC2-deficient) (1 µM) it was 100 ± 1.4%; with 621-102 (TSC2-deficient) (10 µM), 102 ± 2.6%. Further, the relative viability came to 99.5 ± 0.28% in the assay on 621-103 (TSC2-rescued) (0.0001 µM); 99.3 ± 1.5% with 621-103 (TSC2-rescued) (0.001 µM); 98.8 ± 0.17% in the assay with 621-103 (TSC2-rescued) (0.01 µM); 97.77 ± 0.48% in the assay on 621-103 (TSC2-rescued) (0.1 µM); 97.6 ± 2.4% with 621-103 (TSC2-rescued) (1 µM); 98.28 ± 0.37% with 621-103 (TSC2-rescued) (10 µM).
In the case of `O=C(NOC[C@H](O)CO)c1ccc(F)c(F)c1Nc1ccc(I)cc1F`, the relative viability in the assay with 621-102 (TSC2-deficient) (0.0001 µM) worked out at 98.6 ± 2.5%; with 621-102 (TSC2-deficient) (0.001 µM) it was 104 ± 4.5%; in the assay on 621-102 (TSC2-deficient) (0.01 µM), 106.7 ± 0.59%; in the assay on 621-102 (TSC2-deficient) (0.1 µM), 106.2 ± 0.49%; with 621-102 (TSC2-deficient) (1 µM), 98.6 ± 1%; in the assay with 621-102 (TSC2-deficient) (10 µM) it was 52.32 ± 0.36%. The relative viability with 621-103 (TSC2-rescued) (0.0001 µM) amounted to 96.2 ± 1.3%; in the assay on 621-103 (TSC2-rescued) (0.001 µM), 98.8 ± 2.7%; in the assay with 621-103 (TSC2-rescued) (0.01 µM), 100.2 ± 0.66%; with 621-103 (TSC2-rescued) (0.1 µM), 94.5 ± 0.99%; in the assay with 621-103 (TSC2-rescued) (1 µM), 87.31 ± 0.23%; with 621-103 (TSC2-rescued) (10 µM) it was 64.6 ± 1.8%.
As for `NC(=O)c1ncn([C@@H]2O[C@H](CO)[C@@H](O)[C@H]2O)c1O` [Mizoribine], the relative viability with 621-102 (TSC2-deficient) (0.0001 µM) turned out to be 102 ± 2.1%; with 621-102 (TSC2-deficient) (0.001 µM) it was 98.3 ± 1.2%; in the assay on 621-102 (TSC2-deficient) (0.01 µM), 102 ± 1.2%; in the assay with 621-102 (TSC2-deficient) (0.1 µM) it was 100.8 ± 0.97%; in the assay with 621-102 (TSC2-deficient) (1 µM), 99.9 ± 2.9%; with 621-102 (TSC2-deficient) (10 µM) it was 92.9 ± 2.9%. Further, the relative viability is 104.1 ± 0.62% in the assay with 621-103 (TSC2-rescued) (0.0001 µM); 99.8 ± 2% in the assay on 621-103 (TSC2-rescued) (0.001 µM); 99.1 ± 2.2% in the assay on 621-103 (TSC2-rescued) (0.01 µM); 105 ± 3.8% in the assay on 621-103 (TSC2-rescued) (0.1 µM); 98.1 ± 2.5% with 621-103 (TSC2-rescued) (1 µM); 97.4 ± 2.2% in the assay on 621-103 (TSC2-rescued) (10 µM).
`COCCCOc1cc(C[C@@H](C[C@H](N)[C@@H](O)C[C@H](C(=O)NCC(C)(C)C(N)=O)C(C)C)C(C)C)ccc1OC` [Aliskiren hemifumarate]: the relative viability was found to be 110 ± 2.6% with 621-102 (TSC2-deficient) (0.0001 µM); 111 ± 2.7% in the assay on 621-102 (TSC2-deficient) (0.001 µM); 106 ± 5.1% in the assay on 621-102 (TSC2-deficient) (0.01 µM); 112 ± 1.9% with 621-102 (TSC2-deficient) (0.1 µM); 98.8 ± 5.5% in the assay on 621-102 (TSC2-deficient) (1 µM); 95.9 ± 5.5% with 621-102 (TSC2-deficient) (10 µM). Further, the relative viability with 621-103 (TSC2-rescued) (0.0001 µM) was found to be 105 ± 2.6%; in the assay with 621-103 (TSC2-rescued) (0.001 µM), 100 ± 1.1%; in the assay on 621-103 (TSC2-rescued) (0.01 µM), 104 ± 6.3%; in the assay with 621-103 (TSC2-rescued) (0.1 µM) it was 94.7 ± 4.8%; in the assay with 621-103 (TSC2-rescued) (1 µM), 96.59 ± 0.53%; in the assay with 621-103 (TSC2-rescued) (10 µM), 98.8 ± 2.7%.
In the case of `O=C1N=C(O)NC1(c1ccccc1)c1ccccc1` [Phenytoin sodium], the relative viability with 621-102 (TSC2-deficient) (0.0001 µM) worked out at 121 ± 4.2%; in the assay on 621-102 (TSC2-deficient) (0.001 µM), 90.6 ± 8.7%; in the assay with 621-102 (TSC2-deficient) (0.01 µM) it was 94.9 ± 4.7%; with 621-102 (TSC2-deficient) (0.1 µM), 86.6 ± 2.5%; in the assay with 621-102 (TSC2-deficient) (1 µM), 92 ± 6%; in the assay on 621-102 (TSC2-deficient) (10 µM), 100.3 ± 0.98%. Besides, the relative viability came to 105 ± 2.1% with 621-103 (TSC2-rescued) (0.0001 µM); 105.8 ± 0.97% in the assay on 621-103 (TSC2-rescued) (0.001 µM); 100 ± 2.4% in the assay with 621-103 (TSC2-rescued) (0.01 µM); 101 ± 2.9% with 621-103 (TSC2-rescued) (0.1 µM); 94.54 ± 0.49% with 621-103 (TSC2-rescued) (1 µM); 101.8 ± 0.76% in the assay on 621-103 (TSC2-rescued) (10 µM).
Take `CC(C)(C#N)c1cc(Cn2cncn2)cc(C(C)(C)C#N)c1` [Anastrozole (Arimidex)]: the relative viability is 125 ± 1.8% with 621-102 (TSC2-deficient) (0.0001 µM); 109 ± 6.2% in the assay with 621-102 (TSC2-deficient) (0.001 µM); 108 ± 3.5% in the assay with 621-102 (TSC2-deficient) (0.01 µM); 106 ± 2.2% in the assay on 621-102 (TSC2-deficient) (0.1 µM); 120 ± 1.5% with 621-102 (TSC2-deficient) (1 µM); 119 ± 4.3% in the assay on 621-102 (TSC2-deficient) (10 µM). Besides, the relative viability with 621-103 (TSC2-rescued) (0.0001 µM) was 101 ± 1.4%; with 621-103 (TSC2-rescued) (0.001 µM), 104 ± 3.2%; with 621-103 (TSC2-rescued) (0.01 µM), 101 ± 1.7%; with 621-103 (TSC2-rescued) (0.1 µM), 103.6 ± 0.71%; in the assay on 621-103 (TSC2-rescued) (1 µM), 99.407 ± 0.097%; in the assay with 621-103 (TSC2-rescued) (10 µM), 99.4 ± 2.6%.

Source of the values: the supplement of paper PMC8960247.
